Data set [1] in a line: Cytotoxicity assay (CO-ADD). The format is cell-based. The conditions noted are these: human embryonic kidney cells.
For data set [2], the system named is MRSA (G+) strain ATCC 43300. Briefly: Antimicrobial growth inhibition (CO-ADD), MRSA. The conditions noted are these: for inhibition at 32 µg/mL / MIC: Staphylococcus aureus. Type of data set: cell-based, Staphylococcus aureus. On the procedure: (§1) Compounds 1−3 and 5−12 were assayed against a selection of medically important pathogenic microorganisms (MRSA, E. coli, K. pneumoniae, A. baumanii, P. aeruginosa, C. albicans, C. neoformans), Table 4. […] To the best of our knowledge this compound had not been tested against any drug resistant strain of Gram-positive bacterium until this study.
(§2) The antimicrobial activity testing was performed by the Community for Antimicrobial Drug Discovery (CO-ADD). Compounds were assayed against a range of both Gram negative and Gram positive bacteria (see Supplementary Materials S3) including methicillin-resistant Staphylococcus aureus (MRSA) (G+), Escherichia coli (G-), Klebsiella pneumoniae (G-), Acinetobacter baumannii (G-), Pseudomonas aeruginosa (G-) together with two species of fungus (Candida albicans and Cryptococcus neoformans).
(§3) S3. Antimicrobial activity testing methodology
(§4) The compounds submitted to CO-ADD were evaluated in duplicate (n = 2) against seven microorganisms (five bacteria and two fungi) at a concentration of 32 µg/mL in a 384-well, non-binding surface plate (NBS) for each bacterial/fungal strain, keeping the final DMSO concentration to a maximum of 1% DMSO. All bacteria were cultured in cation-adjusted Mueller-Hinton broth (CAMHB) at 37 °C overnight. A sample of each culture was then diluted 40-fold in fresh broth and incubated at 37 °C for 1.5-3 h. The resultant mid-log phase cultures were diluted (CFU/mL measured by OD600), then added to each well of the compound containing plates, giving a cell density of 5x10^5 CFU/mL and a total volume of 50 µL. All the plates were covered and incubated at 37 °C for 18 h without shaking. […] Inhibition of bacterial growth was determined measuring absorbance at 600 nm (OD600) using a Tecan M1000 Pro mon-ochromator plate reader. […]
(§5) 2 h. The absorbance was measured using a Biotek Synergy HTX plate reader. The percentage of growth inhibition was calculated for each well, using negative control (medium only) and positive control (bacteria without inhibitors) on the same plate as the references. The significance of inhibition values was determined by modified Z-scores, calculated using the median and MAD of the samples (no controls) on the same plate. Samples with inhibition value above 80% and Z-score above 2.5 for either replicate (n = 2 on different plates) were classed as actives.
(§6) Colistin and vancomycin were used as positive bacterial inhibitor standards for Gram-negative and Gram-positive bac-teria, respectively. Fluconazole was used as a positive fungal inhibitor standard for C. albicans and C. neoformans. The antibiotics were provided in four concentrations, with two above and two below its MIC value, and plated into the first eight wells of column 23 of the 384-well NBS plates. The quality control (QC) of the assays was determined by the antimicrobial controls and the Z’-factor (using positive and negative controls). Each plate was deemed to fulfil the qual- […]
(§7) full growth inhibition at their highest concentration, and no growth inhibition at their lowest concentration. The seven […]
(§8) test microorganisms were Staphylococcus aureus MRSA (ATCC 43300), Escherichia coli (ATCC 25922), Klebsiella pneu-moniae (ATCC 700603), Acinetobacter baumanii (ATCC19606), Pseudomonas aeruginosa (ATCC 27853), Candida albicans (ATCC 90028) and Cryptococcus neoformans var. grubii (H99; ATCC 208821).
(§9) S4. Anthelmintic activity testing methodology
(§10) Dose-response evaluations were carried out to estimate the half-maximal inhibitory concentrations (IC50 values) for compounds against Haemonchus contortus (Haecon-5 strain) exsheathed third-stage larvae (xL3s). H. contortus were maintained in experimental sheep and procured in accordance with the institutional animal ethics guidelines and the regulations of Australia (permit no. 1714374; University of Melbourne). Immediately prior to use, third-stage larvae (L3s) were exsheathed and sterilised by incubation in 0.15% (v/v) bleach at 38 °C for 20 min, followed by washes in […]

In data set [3] the test system is P. auruginosa (G-) strain ATCC 27853. Put plainly: Antimicrobial growth inhibition (CO-ADD), P. aeruginosa. The format is cell-based, Pseudomonas aeruginosa. The conditions noted are these: for % inhibition P. aeruginosa: 32 µg/mL; for inhibition at 32 µg/mL / MIC: Pseudomonas aeruginosa. On the procedure:
as §1, §2, §3, §4, §5, §6, §7, §8, §9, §10

For data set [4], the system named is C. neoformans var. grubii strain ATCC 208821. Briefly: Antimicrobial growth inhibition (CO-ADD), C. neoformans. The format is cell-based, Cryptococcus neoformans. The conditions noted are these: for % inhibition C. neoformans: 32 µg/mL; for inhibition at 32 µg/mL: Cryptococcus neoformans. On the procedure:
as §1, §2, §3
The compounds submitted to CO-ADD were evaluated in duplicate (n = 2) against seven microorganisms (five bacteria and two fungi) at a concentration of 32 µg/mL in a 384-well, non-binding surface plate (NBS) for each bacterial/fungal strain, keeping the final DMSO concentration to a maximum of 1% DMSO. All bacteria were cultured in cation-adjusted […]
Fungal strains were cultured for 3 days on Yeast Extract-Peptone Dextrose (YPD) agar at 30 °C. A yeast suspension of 1 x 10^6 to 5 x 10^6 CFU/mL (as determined by OD530) was prepared from five colonies. The suspension was subsequently diluted and added to each well of the compound-containing plates giving a final cell density of fungi suspension of 2.5 x 10^3 CFU/mL and a total volume of 50 µL. All plates were covered and incubated at 35 °C for 24 h without shaking. […]
as §5, with “Growth inhibition of C. albicans was determined measuring absorbance at 530 nm (OD530), while the growth inhibition of C. neoformans was determined measuring the difference in absorbance between 600 and 570 nm (OD600-570), after the addition of resazurin (0.001% final concentration) and incubation at 35 °C for an additional 2 h.” for “2 h.”
as §6, §7, §8, §9
Dose-response evaluations were carried out to estimate the half-maximal inhibitory concentrations (IC50 values) for compounds against Haemonchus contortus (Haecon-5 strain) exsheathed third-stage larvae (xL3s). H. contortus were maintained in experimental sheep and procured in accordance with the institutional animal ethics guidelines and the […]

The mark [5] stands for this setting: 32 µg/mL, duplicate (n = 2) values.
The mark [6] stands for this setting: read-out: % inhibition MRSA, 32 µg/mL, duplicate (n = 2) values.
[7] abbreviates: ATCC27853, read-out: % inhibition P. aeruginosa, 32 µg/mL, duplicate (n = 2) values.
Where [8] appears, read: ATCC 43300, MIC = concentration at which growth inhibited by ≥80%, range 0.25−32 µg/mL, read-out: MIC MRSA.
The mark [9] stands for this setting: ATCC27853, ATCC 27853, read-out: MIC P. aeruginosa.
Where [10] appears, read: ATCC208821, read-out: % inhibition C. neoformans, 32 µg/mL, duplicate (n = 2) values.

Values joined by “and” are separate entries in the source; they are usually repeats but may differ in a detail not shown here. Equal values may be shown once. Read-outs that look alike come from different tables or passages of the source. A value given as a limit tells only on which side of the number the result lay.

`COC1=C(Br)[C@H](O)[C@](O)(CC#N)C=C1Br` [Compound 1, (+)-aeroplysinin-1] yielded a CC50 in data set [1] of over 32 µg/mL. Also, in data set [2] (setting [5]), the “% inhibition MRSA” value is 96.7%. Moreover, in data set [2] (ATCC 43300, MIC = concentration at which growth inhibited by ≥80%, range 0.25−32 µg/mL), the “MIC MRSA” value is given as 32 µg/mL. The inhibition at 32 µg/mL amounted to 95.9% in data set [2] (setting [6]); 96.3% in data set [2] (read-out: mean value of % inhibition against MRSA, 32 µg/mL, mean of duplicates); 10.9% in data set [3] (setting [7]). In addition, the MIC in data set [2] (read-out: MIC MRSA, ATCC 43300, MIC = concentration at which growth inhibited by ≥80%, range 0.25−32 µg/mL) was under 32 µg/mL; in data set [3] (ATCC27853, read-out: MIC P. aeruginosa), over 32 µg/mL. Also, the “% inhibition P. aeruginosa” value in data set [3] (duplicate (n = 2) values) is 18.2%. The “% inhibition C. neoformans” value in data set [4] (duplicate (n = 2) values) was −6.6% and 0.0%.
Consider `COC1(OC)C(Br)=CC(O)(CC(N)=O)C=C1Br` [Compound 6, 2-(3,5-dibromo-1-hydroxy-4,4-dimethoxycyclohexa-2,5-dien-1-yl)acetamide], for which the CC50 in data set [1] (human) was over 32 µg/mL. The “% inhibition MRSA” value in data set [2] (setting [5]) is 3.3% and 7.0%. Besides, the minimal inhibitory concentration (MIC) in data set [2] (setting [8]) and in data set [3] (setting [9]) was over 32 µg/mL each time. The “% inhibition P. aeruginosa” value in data set [3] (duplicate (n = 2) values) is 1.1% and 9.7%. The “% inhibition C. neoformans” value in data set [4] (duplicate (n = 2) values) was 11.1% and 2.0%.
`COC1=C(Br)[C@H](O)[C@@]2(C=C1Br)CC(C(=O)NCCCOc1c(Br)cc(CCN)cc1Br)=NO2` [Compound 11, araplysillin I] registered a cytotoxic concentration (CC50) in data set [1] of over 32 µg/mL. For the same molecule, the “% inhibition MRSA” value in data set [2] (setting [5]) stood at 5.7%. Further, the results for the inhibition at 32 µg/mL in data set [2] (setting [6]) and in data set [4] (setting [10]) were 11.3% and 7.6%, respectively. Moreover, the minimal inhibitory concentration (MIC) in data set [2] (setting [8]) and in data set [3] (setting [9]) was over 32 µg/mL throughout. Also, in data set [3] (duplicate (n = 2) values), the “% inhibition P. aeruginosa” value was 0.3% and 8.0%. The “% inhibition C. neoformans” value in data set [4] (duplicate (n = 2) values) worked out at 7.8%.
Consider `COc1c(Br)cc(CC#N)c(O)c1Br` [Compound 8, 2-(3,5-dibromo-2-hydroxy-4-methoxyphenyl)acetonitrile], for which, in data set [1] (human), the 50% cytotoxic concentration (CC50) was over 32 µg/mL. Moreover, the “% inhibition MRSA” value in data set [2] (setting [5]) is listed as 8.5%. In addition, the inhibition at 32 µg/mL in data set [2] (32 µg/mL, duplicate (n = 2) values, read-out: % inhibition MRSA) turned out to be 7.6%; in data set [3] (ATCC27853, 32 µg/mL, duplicate (n = 2) values, read-out: % inhibition P. aeruginosa), 11.2%. Besides, the minimum inhibitory concentration (MIC) in data set [2] (setting [8]) and in data set [3] (setting [9]) was over 32 µg/mL throughout. For the same molecule, the “% inhibition P. aeruginosa” value in data set [3] (duplicate (n = 2) values) stood at 6.8%. In addition, in data set [4] (duplicate (n = 2) values), the “% inhibition C. neoformans” value is 11.1% and 4.0%.
Take `NC(=O)Cc1c(O)cc(Br)c(O)c1Br` [Compound 9, subereaphenol A]: the half-maximal cytotoxic concentration (CC50) in data set [1] (human) was over 32 µg/mL. Also, the MIC in data set [2] (setting [8]) and in data set [3] (setting [9]) was over 32 µg/mL each time. The “% inhibition C. neoformans” value in data set [4] (duplicate (n = 2) values) worked out at 11.9%. In addition, the inhibition at 32 µg/mL in data set [4] (ATCC208821, 32 µg/mL, duplicate (n = 2) values, read-out: % inhibition C. neoformans) was 11.2%.
As for `COC1=C(Br)[C@H](O)[C@@]2(C=C1Br)CC(C(=O)NCCCCNC(=O)C1=NO[C@]3(C=C(Br)C(OC)=C(Br)[C@@H]3O)C1)=NO2` [Compound 2, aerothionin], the CC50 in data set [1] (human) was over 32 µg/mL. In data set [2] (setting [5]), the “% inhibition MRSA” value was −1.5% and 6.1%. Further, the minimum inhibitory concentration (MIC) in data set [2] (setting [8]) and in data set [3] (setting [9]) was over 32 µg/mL throughout.
Turning to `COC1=C(Br)[C@H](O)[C@@]2(C=C1Br)CC(C(=O)NCCCCCNC(=O)C1=NO[C@]3(C=C(Br)C(OC)=C(Br)[C@@H]3O)C1)=NO2` [Compound 3, homoaerothionin], in data set [1], the 50% cytotoxic concentration (CC50) is over 32 µg/mL. Also, the MIC in data set [2] (setting [8]) and in data set [3] (setting [9]) was over 32 µg/mL throughout. In data set [3] (duplicate (n = 2) values), the “% inhibition P. aeruginosa” value was 10.4% and 2.2%. For the same molecule, in data set [4] (duplicate (n = 2) values), the “% inhibition C. neoformans” value is 16.1%. In addition, in data set [4] (setting [10]), the inhibition at 32 µg/mL came to 10.6%.
In data set [1], `COC1=C(Br)[C@H](O)[C@@]2(C=C1Br)CC(C(=O)NCCCOc1c(Br)cc(CCNC(=O)C3=NO[C@]4(C=C(Br)C(OC)=C(Br)[C@@H]4O)C3)cc1Br)=NO2` [Compound 5, 11,17-deoxyfistularin-3] gave a half-maximal cytotoxic concentration (CC50) of over 32 µg/mL. Moreover, the “% inhibition MRSA” value in data set [2] (setting [5]) is reported as 19.8%. The inhibition at 32 µg/mL in data set [2] (setting [6]) came out at 10%; in data set [3] (setting [7]), 4.3%. Moreover, the MIC in data set [2] (setting [8]) and in data set [3] (setting [9]) was over 32 µg/mL in each case. Further, in data set [3] (duplicate (n = 2) values), the “% inhibition P. aeruginosa” value worked out at 7.2%. In addition, the “% inhibition C. neoformans” value in data set [4] (duplicate (n = 2) values) is 10.4% and 3.8%.

By CC50 is commonly meant the concentration that lowers cell viability or growth by half. Read a low CC50 as harm at low concentration. As a reminder, the MIC is the smallest concentration in the dilution series that meets the test's criterion for growth inhibition.

Source of the values: PMC9503778, “Targeted Isolation of Antibiotic Brominated Alkaloids from the Marine Sponge Pseudoceratina durissima Using Virtual Screening and Molecular Networking” (Marine Drugs, 2022).
